Converted amounts (≈) assume the structure as drawn.
Experiments:
[1] = tested on: Aspergillus fumigatus; assay: In vitro activity by the agar dilution method, Aspergillus fumigatus; type: cell-based; conditions: 120 h, Kimmig's agar, 25° C., 5 days, read-out: MIC (minimal inhibitory concentration), Asp. fumigatus
Description: (§1) In vitro activity was evaluated against C. albicans, C. krusei, and Aspergillus fumigatus by the agar dilution method. Test strains were either clinical isolates or were obtained from ATCC. Stock solutions containing 800 μg/mL were prepared by solving the test products in 50% ethanol. The culture medium used was Kimmig's agar (K. A., E. Merck) supplemented with 0.5% glycerol. Plates containing serial dilutions (80 to 0.025 gg/imL) of the test products were inoculated with 10 μL of the fungal inocula, containing 10^5 colony forming units (cfu)/mL. Plates were incubated at 25° C. during 48 h for Candida sp. and during 5 days for Apergillus fumigatus. Following incubation MICs (minimal inhibitory concentrations) were determined.

[2] = tested on: C. albicans; assay: In vitro activity by the agar dilution method, C. albicans; type: cell-based; conditions: Candida albicans; Kimmig's agar, 25° C., 48 h; read-out: MIC (minimal inhibitory concentration), C. albicans
Description: as §1

[3] = tested on: C. krusei; assay: In vitro activity by the agar dilution method, C. krusei; type: cell-based; conditions: Pichia kudriavzevii; Kimmig's agar, 25° C., 48 h; read-out: MIC (minimal inhibitory concentration), C. krusei
Description: as §1

[4] = tested on: Candida albicans; assay: In Vivo Activity (Systemic Candidiasis); conditions: po, 576 h, orally at 1 mg/kg at 1, 4 and 24 h after infection, male mice, i.v. infection, read-out: protection on the day where all the animals in the control group had died
Description: Groups of 10 male mice were inoculated i.v. with 0.2 mL of a suspension containing (2-8)×10^7 cfu/mL of Candida albicans. Compounds were administered orally at 1 mg/kg (or at 10 mg/kg for those compounds marked with an asterisk) at times 1, 4 and 24 h after infection.

Row | SMILES | MIC [1] [µg/mL] | MIC [2] [µg/mL] | MIC [3] [µg/mL] | responders at 1 mg/kg [4] [%]
1 | C[C@@H](n1cnc2cc(N(C)C)c(F)cc2c1=O)[C@](O)(Cn1cncn1)c1ccc(F)cc1F [Example 4, (1R,2R)-3-[2-(2,4-Difluorophenyl)-2-hydroxy-1-methyl-3-(1H-1,2,4-triazol-1-yl)propyl]-7-dimethylamino-6-fluoroquinazolin-4(3H)-one] | 10 (≈ 21.8 µM) | 0.15 (≈ 0.327 µM) | 0.63 (≈ 1.37 µM) | –
2 | C[C@@H](n1cnc2ccccc2c1=O)[C@](O)(Cn1cncn1)c1ccc(F)cc1F [Example 5, (1R,2R)-3-[2-(2,4-Difluorophenyl)-2-hydroxy-1-methyl-3-(1H-1,2,4-triazol-1-yl)propyl]quinazolin-4(3H)-one] | 10 (≈ 25.2 µM) | 0.07 (≈ 0.176 µM) | 5 (≈ 12.6 µM) | –
3 | C[C@@H](n1cnc2ccc(Cl)cc2c1=O)[C@](O)(Cn1cncn1)c1ccc(F)cc1F [Example 7, (1R,2R)-6-Chloro-3-[2-(2,4-difluorophenyl)-2-hydroxy-1-methyl-3-(1H-1,2,4-triazol-1-yl)propyl]quinazolin-4(3H)-one] | 40 (≈ 92.6 µM) | ≤ 0.03 | 2.5 (≈ 5.79 µM) | 100
4 | C[C@@H](n1cnc2c(Cl)cc(Cl)cc2c1=O)[C@](O)(Cn1cncn1)c1ccc(F)cc1F [Example 9, (1R,2R)-6,8Dichloro-3-[2-(2,4-difluorophenyl)-2-hydroxy-1-methyl-3-(1H-1,2,4-triazol-1-yl)propyl]quinazolin4(3H)-one] | – | – | – | 100
5 | C[C@@H](n1cnc2ccc(Br)cc2c1=O)[C@](O)(Cn1cncn1)c1ccc(F)cc1F [Example 10, (1R,2R)-6-Bromo-3-[2-(2,4-difluorophenyl)-2-hydroxy-1-methyl-3-(1H-1,2,4-triazol-1-yl)propyl]quinazolin4(3H)-one] | – | – | – | 100
6 | C[C@@H](n1cnc2cc(F)ccc2c1=O)[C@](O)(Cn1cncn1)c1ccc(F)cc1F [Example 12, (1R,2R)-3-[2-(2,4-Difluorophenyl)-2-hydroxy-1-methyl-3-(1H-1,2,4-triazol-1-yl)propyl]-7-fluoroquinazolin-4(3H)-one] | 1.25 (≈ 3.01 µM) | ≤ 0.03 | 1.25 (≈ 3.01 µM) | –
7 | C[C@@H](n1cnc2cc(OCC(F)F)ccc2c1=O)[C@](O)(Cn1cncn1)c1ccc(F)cc1F [Example 19, (1R,2R)-7-(2,2-Difluoroethoxy)-3-[2-(2,4-difluorophenyl)-2-hydroxy-1-methyl-3-(1H-1,2,4-triazol-1-yl)propyl]quinazolin-4(3H)-one] | – | – | – | 100
8 | Cc1ccc2ncn([C@H](C)[C@](O)(Cn3cncn3)c3ccc(F)cc3F)c(=O)c2c1 [Example 24, (1R,2R)-3-[2-(2,4-Difluorophenyl)-2-hydroxy-1-methyl-3-(1H-1,2,4-triazol-1-yl)propyl]-6-methylquinazolin-4(3H)-one] | 40 (≈ 97.2 µM) | ≤ 0.03 | 2.5 (≈ 6.08 µM) | –
9 | C[C@@H](n1cnc2cc(-c3ccc(C(F)(F)F)cc3)sc2c1=O)[C@](O)(Cn1cncn1)c1ccc(F)cc1F [Example 33, (1R,2R)-3-[2-(2,4-Difluorophenyl)-2-hydroxy-1-methyl-3-(1H-1,2,4-triazol-1-yl)propyl]-6-[(4-trifluoromethyl)phenyl]thieno[3,2-d]pyrimidin-4(3H)-one] | – | – | – | 100
10 | C[C@@H](n1cnc2cc(-c3ccc(OCC(F)(F)C(F)F)cc3)sc2c1=O)[C@](O)(Cn1cncn1)c1ccc(F)cc1F [Example 34, (1R,2R)-3-[2-(2,4-Difluorophenyl)-2-hydroxy-1-methyl-3-(1H-1,2,4-triazol-1-yl)propyl]-6-[4-(2,2,3,3-tetrafluoropropoxy)phenyl]thieno[3,2-d]pyrimidin-4(3H)-one] | – | – | – | 100
11 | C[C@@H](n1cnc2cc3ccccc3cc2c1=O)[C@](O)(Cn1cncn1)c1ccc(F)cc1F [Example 38, (1R,2R)-3-[2-(2,4-Difluorophenyl)-2-hydroxy-1-methyl-3-(1H-1,2,4-triazol-1-yl)propyl]benzo[g]quinazolin4(3H)-one] | 20 (≈ 44.7 µM) | ≤ 0.03 | 5 (≈ 11.2 µM) | –
12 | C[C@@H](n1cnc2cc(-n3cncn3)ccc2c1=O)[C@](O)(Cn1cncn1)c1ccc(F)cc1F [Example 48, (1R,2)-3-[2-(2,4-Difluorophenyl)-2-hydroxy-1-methyl-3-(1H-1,2,4-triazol-1-yl)propyl]-7-(1H-1,2,4-triazol-1-yl)quinazolin-4(3H)-one] | – | – | – | 100
13 | C[C@@H](n1cnc2cc(S(C)(=O)=O)ccc2c1=O)[C@](O)(Cn1cncn1)c1ccc(F)cc1F [Example 51, (1R,2R)-3-[2-(2,4-Difluorophenyl)-2-hydroxy-1-methyl-3-(1H-1,2,4-triazol-1-yl)propyl]-7-(methylsulfonyl)quinazolin-4(3H)-one] | – | – | – | 100
14 | C[C@@H](n1cnc2cc(Cl)ccc2c1=O)[C@](O)(Cn1cncn1)c1ccc(Cl)cc1Cl [Example 52, (1R,2R)-7-Chloro-3-[2-(2,4-dichlorophenyl)-2-hydroxy-1-methyl-3-(1H-1,2,4-triazol-1-yl)propyl]quinazolin-4(3H)-one] | – | – | – | 100
15 | C[C@@H](n1cnc2cc(C(F)(F)F)ccc2c1=O)[C@](O)(Cn1cncn1)c1ccc(Cl)cc1Cl [Example 53, (1R,2R)-3-[2-(2,4-Dichlorophenyl)-2-hydroxy-1-methyl-3-(1H-1,2,4-triazol-1-yl)propyl]-7-trifluoromethylquinazolin-4(3H)-one] | – | – | – | 100
16 | C[C@@H](n1cnc2cc(-c3ccc(Cl)cc3)sc2c1=O)[C@](O)(Cn1cncn1)c1ccc(Cl)cc1Cl [Example 54, (1R,2R)-6-(4-Chlorophenyl)-3-[2-(2,4-dichlorophenyl)-2-hydroxy-1-methyl-3-(1H-1,2,4-triazol-1-yl)propyl]thieno[3,2-d]pyrimidin-4(3H)-one] | – | – | – | 100
17 | C[C@@H](n1cnc2cc(-c3ccc(C#N)cc3)sc2c1=O)[C@](O)(Cn1cncn1)c1ccc(Cl)cc1Cl [Example 55, (1R,2R)-4-[3-[2-(2,4-Dichlorophenyl)-2-hydroxy-1-methyl-3-(1H-1,2,4-triazol-1-yl)propyl]-4-oxo-3,4-dihydrothieno[3,2-d]pyrimidin-6-yl]benzonitrile] | – | – | – | 100
18 | C[C@@H](n1cnc2cc(Sc3ccccc3)ccc2c1=O)[C@](O)(Cn1cncn1)c1ccc(F)cc1F [Example 60, (1R,2R)-3-[2-(2,4-Difluorophenyl)-2-hydroxy-1-methyl-3-(1H-1,2,4-triazol-1-yl)propyl]-7-(phenylthio)quinazolin-4(3H)-one] | 0.63 (≈ 1.25 µM) | ≤ 0.03 | 0.31 (≈ 0.613 µM) | –
19 | C[C@@H](n1cnc2cc(S(=O)(=O)c3ccccc3)ccc2c1=O)[C@](O)(Cn1cncn1)c1ccc(F)cc1F [Example 61, (1R,2R)-3-[2-(2,4-Difluorophenyl)-2-hydroxy-1-methyl-3-(1H-1,2,4-triazol-1-yl)propyl]-7-phenylsulfonylquinazolin-4(3H)-one] | 5 (≈ 9.3 µM) | 0.31 (≈ 0.577 µM) | 5 (≈ 9.3 µM) | –
20 | C[C@@H](n1cnc2cc(-c3ccc(C(=N)NO)cc3)sc2c1=O)[C@](O)(Cn1cncn1)c1ccc(F)cc1F [Example 62, (1R,2R)-3-[2-(2,4-Difluorophenyl)-2-hydroxy-1-methyl-3-(1H-1,2,4-triazol-1-yl)propyl]-6-[4-[(hydroxyamino)iminomethyl]phenyl]thieno[3,2-d]pyrimidin-4(3H)-one] | – | – | – | 100
21 | C[C@@H](n1cnc2cc(-c3ccc(C(=N)NC#N)cc3)sc2c1=O)[C@](O)(Cn1cncn1)c1ccc(F)cc1F [Example 65, (1R,2R)-6-[4-[Cyanoamino(imino)methyl]phenyl]-3-[2-(2,4-difluorophenyl)-2-hydroxy-1-methyl-3-(1H-1,2,4-triazol-1-yl)propyl]thieno[3,2-d]pyrimidin-4(3H)-one] | – | – | – | 100
22 | CC(=O)ONC(=N)c1ccc(-c2cc3ncn([C@H](C)[C@](O)(Cn4cncn4)c4ccc(F)cc4F)c(=O)c3s2)cc1 [Example 68] | 20 (≈ 34.5 µM) | 0.31 (≈ 0.535 µM) | 10 (≈ 17.3 µM) | –
23 | C[C@@H](n1cnc2cc(-c3ccc(C4=NCCO4)cc3)sc2c1=O)[C@](O)(Cn1cncn1)c1ccc(F)cc1F [Example 69, (1R,2R)-3-[2-(2,4-Difluorophenyl)-2-hydroxy-1-methyl-3-(1-H-1,2,4-triazol-1-yl)propyl]-6-[4-(4,5-dihydrooxazol-2-yl)phenyl]thieno[3,2-d]pyrimidin-4(3H)-one] | – | – | – | 100
24 | C[C@@H](n1cnc2cc(-c3ccc(C(=N)NCCN)cc3)sc2c1=O)[C@](O)(Cn1cncn1)c1ccc(F)cc1F [Example 70, (1R,2R)-6-[4-[(2-Aminoethylamino)(imino)methyl]phenyl]-3-[2-(2,4-difluorophenyl)-2-hydroxy-1-methyl-3-(1H-1,2,4-triazol-1-yl)propyl]thieno[3,2-d]pyrimidin-4(3H)-one] | 20 (≈ 35.4 µM) | 0.07 (≈ 0.124 µM) | 10 (≈ 17.7 µM) | –
25 | C[C@@H](n1cnc2cc(NCc3ccccc3)ccc2c1=O)[C@](O)(Cn1cncn1)c1ccc(F)cc1F [Example 71, (1R,2R)-7-Benzylamino-3-[2-(2,4-difluorophenyl)-2-hydroxy-1-methyl-3-(1H-1,2,4-triazol-1-yl)propyl]quinazolin-4(3H)-one] | 5 (≈ 9.95 µM) | ≤ 0.03 | 2.5 (≈ 4.97 µM) | –

— patent US5807854A, “Pyrimidone derivatives with antifungal activity” (J. Uriah & Cia. S.A., priority 1995, dated 1998)
